Measured values published in article PMC11561307, “Ultra-inert lanthanide chelates as mass tags for multiplexed bioanalysis” (Nature Communications, 2024).

Test: Kinetic inertness: acid-assisted dechelation in excess HCl
Assay type: physicochemical
Conditions: for t½ (0.1 M HCl, 80 °C) / t½ (1.0 M HCl, 80 °C) / t½ (6.0 M HCl, 80 °C) / t½ (0.1 M HCl, 25 °C): dechelation half-life, HPLC-UV after 1 h, 1 day, 1 week, 1 month, ± error of the fit; for t½ (0.1 M HCl, 80 °C) / t½ (0.1 M HCl, 25 °C): 0.5 mM chelate in 0.1 M HCl; for t½ (0.1 M HCl, 80 °C) / t½ (1.0 M HCl, 80 °C) / t½ (0.1 M HCl, 25 °C): exponential decay fit; for t½ (1.0 M HCl, 80 °C): 0.5 mM chelate in 1.0 M HCl; for t½ (6.0 M HCl, 80 °C): 0.5 mM chelate in 6.0 M HCl, fit y = exp(−x/t), t½ = ln(2) × t; for abundance of intact chelate: section above Supp. Fig 16, head with acid, temperature and time not given; for half-life / half-life, h: Figure 2A

| SMILES | t½ (0.1 M HCl, 80 °C) (80 °C) | t½ (1.0 M HCl, 80 °C) (80 °C) | t½ (6.0 M HCl, 80 °C) (80 °C) | abundance of intact chelate [%] | half-life (0.1 M HCl, 25 °C) [h] | half-life, h (0.1 M HCl, 80 °C) | half-life, h (1.0 M HCl, 80 °C) | half-life, h (6.0 M HCl, 80 °C) | half-life, h (0.1 M HCl, 25 °C) | half-life (0.1 M HCl, 80 °C) [h] | half-life (1.0 M HCl, 80 °C) [h] | half-life (6.0 M HCl, 80 °C) [h] | t½ (0.1 M HCl, 25 °C) (25 °C) | estimated half-life (6.0 M HCl at 80 °C) [years] | intact chelate (ratio NO2BnDOTA/[Lu(NO2BnDOTA)]) (0.1 M HCl at 80 °C after 1 h, HPLC-UV, initial and repeated injection identical) [%] |
| --- | --- | --- | --- | --- | --- | --- | --- | --- | --- | --- | --- | --- | --- | --- | --- |
| O=C([O-])CN1CCN2CCN(CC(=O)[O-])CCN(CC1)Cc1cccc(n1)-c1cn(nn1)Cc1cc(-c3ccccc3)cc(n1)C2.[Gd+3] [1,4-cz-[Gd(PhL1)]] | too unstable | too unstable | too unstable | 97.8 |  |  |  |  |  |  |  |  |  |  |  |
| O=C([O-])CN1CCN2CCN(CC(=O)[O-])CCN(CC1)Cc1cccc(n1)-c1cn(nn1)Cc1cc(-c3ccccc3)cc(n1)C2.[Lu+3] [1,4-cz-[Lu(PhL1)]] | too unstable | too unstable | too unstable | 98.7 |  |  |  |  |  |  |  |  |  |  |  |
| O=C([O-])CN1CCN2CCN(CC(=O)[O-])CCN(CC1)Cc1cccc(n1)-c1cnnn1Cc1cc(-c3ccccc3)cc(n1)C2.[Ca+2] [Ph{Ca}] | too unstable | too unstable | too unstable | 38.9 |  |  |  |  |  |  |  |  |  |  |  |
| O=C([O-])CN1CCN2CCN(CC(=O)[O-])CCN(CC1)Cc1cccc(n1)-c1cnnn1Cc1cc(-c3ccccc3)cc(n1)C2.[Ce+3] [Ph{Ce}] | too unstable | too unstable | too unstable |  | 16.5 | too unstable | too unstable | too unstable |  |  |  |  |  |  |  |
| O=C([O-])CN1CCN2CCN(CC(=O)[O-])CCN(CC1)Cc1cccc(n1)-c1cnnn1Cc1cc(-c3ccccc3)cc(n1)C2.[Dy+3] [Ph{Dy}] |  |  |  | 100.0 |  |  |  |  | too stable | 95000 | 3500 | 12 | too stable |  |  |
| O=C([O-])CN1CCN2CCN(CC(=O)[O-])CCN(CC1)Cc1cccc(n1)-c1cnnn1Cc1cc(-c3ccccc3)cc(n1)C2.[Er+3] [Ph{Er}] | too stable |  |  | 100.0 |  | too stable |  |  | too stable |  | 59200 | 343 | too stable |  |  |
| O=C([O-])CN1CCN2CCN(CC(=O)[O-])CCN(CC1)Cc1cccc(n1)-c1cnnn1Cc1cc(-c3ccccc3)cc(n1)C2.[Eu+3] [Ph{Eu}] |  |  | too unstable |  |  |  |  | too unstable | too stable | 380 | 7.3 |  | too stable |  |  |
| O=C([O-])CN1CCN2CCN(CC(=O)[O-])CCN(CC1)Cc1cccc(n1)-c1cnnn1Cc1cc(-c3ccccc3)cc(n1)C2.[Gd+3] [Ph{Gd}] |  |  |  |  |  |  |  |  | too stable | 2470 | 30.4 | 0.17 | too stable |  |  |
| O=C([O-])CN1CCN2CCN(CC(=O)[O-])CCN(CC1)Cc1cccc(n1)-c1cnnn1Cc1cc(-c3ccccc3)cc(n1)C2.[Ho+3] [Ph{Ho}] | too stable |  |  | 100.0 |  | too stable |  |  | too stable |  | 13200 | 68.2 | too stable |  |  |
| O=C([O-])CN1CCN2CCN(CC(=O)[O-])CCN(CC1)Cc1cccc(n1)-c1cnnn1Cc1cc(-c3ccccc3)cc(n1)C2.[La+3] [Ph{La}] | too unstable | too unstable | too unstable |  | 2.48 | too unstable | too unstable | too unstable |  |  |  |  |  |  |  |
| O=C([O-])CN1CCN2CCN(CC(=O)[O-])CCN(CC1)Cc1cccc(n1)-c1cnnn1Cc1cc(-c3ccccc3)cc(n1)C2.[Lu+3] [Ph{Lu}] | too stable | too stable |  | 100.0 |  | too stable | too stable |  | too stable |  |  | 25300 | too stable | ~3 |  |
| O=C([O-])CN1CCN2CCN(CC(=O)[O-])CCN(CC1)Cc1cccc(n1)-c1cnnn1Cc1cc(-c3ccccc3)cc(n1)C2.[Nd+3] [Ph{Nd}] |  | too unstable | too unstable |  | 179 |  | too unstable | too unstable |  | 2.55 |  |  |  |  |  |
| O=C([O-])CN1CCN2CCN(CC(=O)[O-])CCN(CC1)Cc1cccc(n1)-c1cnnn1Cc1cc(-c3ccccc3)cc(n1)C2.[Pr+3] [Ph{Pr}] |  | too unstable | too unstable |  | 51.7 |  | too unstable | too unstable |  | 0.467 |  |  |  |  |  |
| O=C([O-])CN1CCN2CCN(CC(=O)[O-])CCN(CC1)Cc1cccc(n1)-c1cnnn1Cc1cc(-c3ccccc3)cc(n1)C2.[Sm+3] [Ph{Sm}] |  |  | too unstable |  | 13400 |  |  | too unstable |  | 111 | 1.46 |  |  |  |  |
| O=C([O-])CN1CCN2CCN(CC(=O)[O-])CCN(CC1)Cc1cccc(n1)-c1cnnn1Cc1cc(-c3ccccc3)cc(n1)C2.[Tb+3] [Ph{Tb}] |  |  |  |  |  |  |  |  | too stable | 31700 | 372 | 2.1 | too stable |  |  |
| O=C([O-])CN1CCN2CCN(CC(=O)[O-])CCN(CC1)Cc1cccc(n1)-c1cnnn1Cc1cc(-c3ccccc3)cc(n1)C2.[Tm+3] [Ph{Tm}] | too stable | too stable |  | 100.0 |  | too stable | too stable |  | too stable |  |  | 1360 | too stable |  |  |
| O=C([O-])CN1CCN2CCN(CC(=O)[O-])CCN(CC1)Cc1cccc(n1)-c1cnnn1Cc1cc(-c3ccccc3)cc(n1)C2.[Yb+3] [Ph{Yb}] | too stable | too stable |  | 100.0 |  | too stable | too stable |  | too stable |  |  | 4690 | too stable |  |  |
| O=C([O-])CN1CCN2CCN(CC(=O)[O-])CCN(CC1)Cc1cccc(n1)-c1cnnn1Cc1cc(-c3ccccc3)cc(n1)C2.[Y+3] [Ph{Y}] |  |  |  | 100.0 |  |  |  |  |  |  |  |  | too stable |  |  |
| O=C([O-])CN1CCN(CC(=O)[O-])CCN(CC(=O)[O-])C(Cc2ccc([N+](=O)[O-])cc2)CN(CC(=O)[O-])CC1.[Gd+3] (stereo not drawn) [[Gd(NO2BnDOTA)], reference compound] |  |  | too unstable |  |  |  |  |  |  |  |  |  |  |  |  |
| O=C([O-])CN1CCN(CC(=O)[O-])CCN(CC(=O)[O-])C(Cc2ccc([N+](=O)[O-])cc2)CN(CC(=O)[O-])CC1.[La+3] (stereo not drawn) [[La(NO2BnDOTA)], reference compound] |  | too unstable | too unstable |  |  |  |  |  |  |  |  |  |  |  |  |
| O=C([O-])CN1CCN(CC(=O)[O-])CCN(CC(=O)[O-])C(Cc2ccc([N+](=O)[O-])cc2)CN(CC(=O)[O-])CC1.[Lu+3] (stereo not drawn) [[Lu(NO2BnDOTA)], reference compound] |  |  | too unstable |  |  |  |  |  |  |  |  |  |  |  | 76 |
